Assay results from patent US8283370B2, “Imidazolidinedione derivatives as antimalarial agents, preparation thereof, and methods of use” (The United States of America as Represented by the …, priority 2008, dated 2012).
Values joined by “and” are separate entries in the source; they are usually repeats but may differ in a detail not shown here. Equal values may be shown once.

Columns and labels:
Assay type in all cases: in vivo
[1] = tested on: P. cynomolgi liver stage hypnozoites; experiment: Radical cure test in relapsed Rhesus monkeys
Description: Monkeys were treated with chloroquine (10 mg/kg/day) by oral for 7 consecutive days and the test compounds by IM for 3 consecutive days after the parasitemia level reached 5,000 parasites/mm^3. Chloroquine (CQ) at 10 mg/kg/day×7 days eliminates the blood stage parasites, but not the liver stage hypnozoites. Compounds with antihypnozoite activity will delay the relapse or radically cure the infection. To evaluate the radical curative properties, daily blood samples were followed for 21 days, 3 times per week for 4 weeks, and then 2 times weekly until 100 days after the last day of test compound administration. Parasite clearance should occur in all animals treated with chloroquine. Relapse is expected in the control group. Relapse in the treated group indicates failure of the test compounds. […] Relapses of the control monkeys were treated with chloroquine once daily for 7-days and observed for a second relapse. Relapse in experimental animals and the second relapse of the control monkeys were treated with the standard 7-day oral CQ (chloroquine) and primaquine (1.78 mg base/kg). After standard treatment, blood smears were monitored daily for 4 consecutive days of negative results and 2 times weekly for 2 weeks.

P. berghei sporozoites = experiment: Causal prophylactic activity, exoerythrocytic (EE) mouse model, P. berghei sporozoites; conditions: 3 days treated
Description: (§1) New compounds were assessed for their causal prophylactic activity in two different exoerythrocytic (EE) mouse models using sporozoites of either P. berghei or P. yoelii. The procedures have been previously described (see, for example, Q. Zhang et al., J. Med. Chem. 48 (20): 6472-6481 (2005)). Briefly, each compound was ground with a mortar and pestle and suspended in hydroxyethylcellulose and Tween 80 for compounds to be administered PO and those given SC were suspended in peanut oil. Each compound was prepared at different dose levels. Compounds were administered either PO or SC to mice once a day for three consecutive days, to mice on the day before, 4 hours before, and the day after being inoculated intraperitoneally with P. yoelii sporozoites or P. berghei sporozoites intravenously. Whole body weights were taken on Day 0 and Day 6 then approximately twice a week for 31 days. A blood film was taken on Day 5 and then approximately twice a week for 31 days. Mice losing greater than about 20% of their body weight were sacrificed. A compound was considered active if only low levels of parasites were found (less than about 10%) in blood films taken on Day 5 or any biweekly for 31 days. Mice alive on Day 31 with no parasites found in any blood films were considered protected.

P. yoelii sporozoites = experiment: Causal prophylactic activity, exoerythrocytic (EE) mouse model, P. yoelii sporozoites; conditions: for P. yoelli # Mice Protected/# Mice Used: 3 days treated; for Causal prophylactic protection in mice (comparison in words): Table 5, compared to control compound 3 or between P. yoelii and P. berghei
Description: as §1

P. cynomolgi sporozoites = experiment: Causal prophylactic test in P. cynomolgi sporozoites challenged Rhesus monkeys; conditions: for Causal prophylactic activity in Rhesus test (in words): 30 mg/kg/day for 3 days by IM; for Patency (Days Post-innoculation): one value per monkey, 30 mg/kg 1 daily for 3 days, IM (days -1, 0, +1), 30 mg/kg
Description: Among the new compounds prepared, representative compounds 5e, 6c, 7a and 7c were assessed for causal prophylactic and radical cure activities in Rhesus monkeys. To protect the Rhesus monkeys, a test compound must pass a mouse toxicity test at 300 mg/kg/day for 3 consecutive days by SC administration, and mice must not lose more than 5% body weight within 30 days after receiving the test compound.
The causal prophylactic and radical curative antimalarial activity of the new derivatives 5e, 6c, 7a and 7c were assessed in a P. cynomolgi sporozoites challenged Rhesus monkey model. Detailed procedure of sporozoites harvest and drug tests have been described previously (J. Guan et al., Bioorg. Med. Chem. 23, 699-704 (2005); Q. Zhang et al., J. Med. Chem. 48 (20): 6472-6481 (2005)) Briefly, monkeys were randomized to control groups and experimental groups. A donor monkey was inoculated intravenously with 1.3 mL freshly-thawed frozen infected red blood cells (DA310). When the donor monkey developed gametocytemia, mosquito feedings were conducted on days 13 and 14 after inoculation. The donor monkey was treated with intramuscular chloroquine hydrochloride (CQ) 10 mg/kg, once a day after the second mosquito feeding and continued for 7 days. On day 0 (beginning of assay), each of the monkeys was inoculated intravenously with 1-ml inoculum of suspension containing about 1.0×10^6 (one million) P. cynomolgi sporozoites harvested from Anopheles dirus mosquitoes' salivary glands previously fed on the donor monkey (See, for example, Corcoran, K D, et al. (1993) Am. J. Trop. Med. Hyg. 49:473 477, and Shanks, G D, et al. (2001) Clinical Infectious Diseases 33:1968 1974). All monkeys received treatment on days −1, 0 and 1. The control monkeys received dimethylsulfoxide (DMSO) and the experimental animals received testing compound intramusculary. After the assay, all monkeys were given standard malarial treatment. Specifically, seven-day primaquine (1.78 mg/kg) and chloroquine (10 mg/kg) were administered to treat all monkeys.

[2] = one value per monkey, 30 mg/kg 1 daily for 3 days IM with CQ 10 mg/kg x7 po

| Compound | P. berghei # Mice Protected/# Mice Used (P. berghei sporozoites; Dose/day 40 mg/kg) | P. berghei # Mice Protected/# Mice Used (P. berghei sporozoites; Dose/day 160 mg/kg) | P. yoelli # Mice Protected/# Mice Used (P. yoelii sporozoites; Dose/day 10 mg/kg) | P. yoelli # Mice Protected/# Mice Used (P. yoelii sporozoites; Dose/day 40 mg/kg) | P. yoelli # Mice Protected/# Mice Used (P. yoelii sporozoites; Dose/day 160 mg/kg) | Causal prophylactic activity in Rhesus test (in words) (P. cynomolgi sporozoites) | Patency (Days Post-innoculation) (P. cynomolgi sporozoites) | Delayed relapse, Days Post-treatment [1, 2] | further results |
| --- | --- | --- | --- | --- | --- | --- | --- | --- | --- |
| CCN(CC)CCCC(C)Nc1ccnc2cc(Cl)ccc12 (centres unmarked) [CQ, chloroquine, reference compound] |  |  |  |  |  |  |  |  | Relapse, Days Post-treatment ([1]; one value per monkey, CQ 10 mg/kg x7 po alone (Drug 2 none)): 9 days |
| CC(C)N1C(=O)C(=O)N=C1/N=C(\NC(=O)OC(C)(C)C)Nc1ccc(Cl)c(Cl)c1 [Compound 3, reference compound] | 2/10 | 4/10 | 3/5 | 2/5 | 4/5 |  |  |  |  |
| CC(C)N1C(=O)C(=O)N=C1N=C(NOCc1ccccc1)Nc1ccc(Cl)c(Cl)c1 [Compound 5e] | 0/5 | 0/5 |  |  |  | about equal in causal prophylactic activity to 7c | 27 days and 29 days | 35 days and 33 days |  |
| CC(C)NC(=NC1=NC(=O)C(=O)N1C(C)C)Nc1ccc(Cl)c(Cl)c1 [Compound 6c] | 0/5 | 1/5 |  |  |  | most potent causal prophylactic activity | 62 days and 94 days | 66 days and 91 days | Radical curative efficacy (in words) ([1]; test compound IM for 3 days with CQ po for 7 days): more active than 5e, 7a and 7c |
| CC(C)N1C(=O)C(=O)N=C1N=C(NCC(C)(C)C)Nc1ccc(Cl)c(Cl)c1 [Compound 6e] | 0/5 | 1/5 | 5/5 | 5/5 | 5/5 |  |  |  | Causal prophylactic protection in mice (comparison in words) (P. yoelii sporozoites): enhanced protection |
| CC(C)N1C(=O)C(=O)N=C1N=C(Nc1ccccc1)Nc1ccc(Cl)c(Cl)c1 [Compound 6f] | 0/5 | 0/5 | 5/5 | 5/5 | 5/5 |  |  |  | Causal prophylactic protection in mice (comparison in words) (P. yoelii sporozoites): enhanced protection |
| CCC(CC)C(=O)NC(=NC1=NC(=O)C(=O)N1C(C)C)Nc1ccc(Cl)c(Cl)c1 [Compound 7a] |  |  |  |  |  | weak causal prophylactic activity | 13 days and 17 days | 16 days | Delayed relapse, days longer as compared with control animals ([1]; 30 mg/kg 1 daily for 3 days IM with CQ 10 mg/kg x7 po): 7 days; Results (radical cure, in words) ([1]; 30 mg/kg 1 daily for 3 days IM with CQ 10 mg/kg x7 po, no relapse after 100 days = radically cured): One out of two monkeys treated with 7a was cured and Cure |
| CC(C)N1C(=O)C(=O)N=C1N=C(NC(=O)C(C)(C)C)Nc1ccc(Cl)c(Cl)c1 [Compound 7c] |  |  |  |  |  | superior protective activity than that of 7a | 21 days and 40 days |  | Delayed relapse, days longer as compared with control animals ([1]; 40 mg/kg 1 daily for 3 days IM with CQ 10 mg/kg x7 po): 20 days and 23 days; Delayed relapse, Days Post-treatment ([1]; one value per monkey, 40 mg/kg 1 daily for 3 days IM with CQ 10 mg/kg x7 po): 29 days and 32 days |
